“And” between values parts separate entries of the source, which are not always exact repeats. Identical values can stand only once. Toxic doses and inconclusive results are not listed.

The assay relates to BDF1 mice, Lewis lung carcinoma iv, survival T/C. Put plainly: NCI In Vivo Anticancer Drug Screen. Data for tumor model Lewis Lung Carcinoma (intravenous) in B6D2F1 (BDF1) mice. Particulars: endpoint: median survival time, higher = longer survival. As to the method: The antitumor activity of compounds was measured in mice bearing transplantable tumors. Survival or tumor size were measured and the results are expressed as the measurement made in the treated group (T) divided by the measurement made in the vehicle treated control group (C). The tumor model used in this assay is Lewis Lung Carcinoma (intravenous) in B6D2F1 (BDF1) mice

[1] abbreviates: dose: 0.78 mg/kg/injection, schedule: Q01DX009 (ip), vehicle: saline with Tween-80.
Where [2] appears, read: dose: 1.56 mg/kg/injection, schedule: Q01DX009 (ip), vehicle: saline with Tween-80.
The mark [3] stands for this setting: dose: 3.12 mg/kg/injection, schedule: Q01DX009 (ip), vehicle: saline with Tween-80.
Where [4] appears, read: dose: 6.25 mg/kg/injection, schedule: Q01DX009 (ip), vehicle: saline with Tween-80.
[5] abbreviates: dose: 12.5 mg/kg/injection, schedule: Q01DX009 (ip), vehicle: saline with Tween-80.
The mark [6] stands for this setting: dose: 25.0 mg/kg/injection, schedule: Q01DX009 (ip), vehicle: saline with Tween-80.
Setting [7] is: dose: 50.0 mg/kg/injection, schedule: Q01DX009 (ip), vehicle: saline with Tween-80.
[8] abbreviates: dose: 100.0 mg/kg/injection, schedule: Q01DX009 (ip), vehicle: saline with Tween-80.
[9] abbreviates: dose: 200.0 mg/kg/injection, schedule: Q01DX009 (ip), vehicle: saline with Tween-80.
Where [10] appears, read: dose: 25.0 mg/kg/injection, schedule: Q01DX009 (ip), vehicle: Klucel (hydroxypropylcellulose) (HPC).
Setting [11] is: dose: 50.0 mg/kg/injection, schedule: Q01DX009 (ip), vehicle: Klucel (hydroxypropylcellulose) (HPC).
Where [12] appears, read: dose: 400.0 mg/kg/injection, schedule: Q01DX009 (ip), vehicle: saline with Tween-80.
[13] abbreviates: dose: 12.5 mg/kg/injection, schedule: Q01DX009 (ip), vehicle: Klucel (hydroxypropylcellulose) (HPC).

Regarding `Cc1ccc[c]([Hg][Cl])c1N=Nc1ccccc1`, the T/C under setting [1] was 100 % of control; the T/C under setting [2] is 105 % of control; the T/C under setting [3] is 90 % of control; the T/C under setting [4] is 115 % of control; the T/C under setting [5] is 94 % of control.

For the compound `COc1ccc2nonc2c1`, the T/C runs as follows: under setting [6], 191 % of control; under setting [7], 109 % of control; under setting [8], 101 % of control; under setting [9], 103 % of control.

As to `CCCCCc1cc(/C=C2/N=C(c3ccc[nH]3)C=C2OC)[nH]c1C`, the T/C (dose: 0.25 mg/kg/injection, schedule: Q01DX009 (ip), vehicle: suspension in saline) was 94 % of control; the T/C (dose: 0.5 mg/kg/injection, schedule: Q01DX009 (ip), vehicle: suspension in saline) was 100 % of control; the T/C (dose: 1.0 mg/kg/injection, schedule: Q01DX009 (ip), vehicle: suspension in saline) was 103 % of control; the T/C (dose: 2.0 mg/kg/injection, schedule: Q01DX009 (ip), vehicle: suspension in saline) was 103 % of control; the T/C (dose: 4.0 mg/kg/injection, schedule: Q01DX009 (ip), vehicle: suspension in saline) was 106 % of control; the T/C (dose: 8.0 mg/kg/injection, schedule: Q01DX009 (ip), vehicle: suspension in saline) was 109 % of control.

As for `CC(C)(C)N1CC1CNC(=O)C(=O)NCC1CN1C(C)(C)C` (stereo unspecified), the T/C is 111 % of control under setting [1]; 105 % of control under setting [2]; 98 % of control under setting [3]; 105 % of control under setting [4]; 117 % of control under setting [5].

For `COC1=C(NC(C)=O)C(=O)c2nc(-c3nc(C(=O)O)c(C)c(-c4ccc(OC)c(OC)c4O)c3N)ccc2C1=O`, the T/C (dose: 6.0 mg/kg/injection, schedule: Q01DX009 (ip), vehicle: Klucel (hydroxypropylcellulose) (HPC)) is 101 % of control; the T/C (dose: 12.0 mg/kg/injection, schedule: Q01DX009 (ip), vehicle: Klucel (hydroxypropylcellulose) (HPC)) was 96 % of control; the T/C under setting [10] was 98 % of control; the T/C under setting [11] was 97 % of control.

On to `O=NN(CCCl)C(=O)NC1CCC(=O)NC1=O` (stereo unspecified), for which the T/C is, setting by setting: (dose: 0.5 mg/kg/injection, schedule: Q01DX009 (ip), vehicle: saline with Tween-80) 115 % of control; (dose: 1.0 mg/kg/injection, schedule: Q01DX009 (ip), vehicle: saline with Tween-80) 103 % of control; (dose: 2.0 mg/kg/injection, schedule: Q01DX009 (ip), vehicle: saline with Tween-80) 185 % of control; (dose: 4.0 mg/kg/injection, schedule: Q01DX009 (ip), vehicle: saline with Tween-80) 247 % of control; (dose: 8.0 mg/kg/injection, schedule: Q01DX009 (ip), vehicle: saline with Tween-80) 104 % of control.

`O=CC(O)C(O)C(O)C(O)C(=O)O.[NH-]C1CCCCC1[NH-].[Pt+2]` (stereo unspecified): the T/C (dose: 0.1 mg/kg/injection, schedule: Q01DX009 (ip), vehicle: suspension in saline) was 92 % of control; the T/C (dose: 0.2 mg/kg/injection, schedule: Q01DX009 (ip), vehicle: suspension in saline) is 92 % of control; the T/C (dose: 0.39 mg/kg/injection, schedule: Q01DX009 (ip), vehicle: suspension in saline) is 104 % of control; the T/C (dose: 0.78 mg/kg/injection, schedule: Q01DX009 (ip), vehicle: suspension in saline) was 112 % of control; the T/C (dose: 1.56 mg/kg/injection, schedule: Q01DX009 (ip), vehicle: suspension in saline) was 108 % of control.

In the case of `CN(C)CCCNc1c2ccccc2nc2cccc([N+](=O)[O-])c12`, the T/C (dose: 44.8 micrograms/kg/injection, schedule: Q04DX003 (ip), vehicle: saline) is 92 % of control; the T/C (dose: 124.0 micrograms/kg/injection, schedule: Q04DX003 (ip), vehicle: saline) was 92 % of control; the T/C (dose: 346.0 micrograms/kg/injection, schedule: Q04DX003 (ip), vehicle: saline) is 86 % of control.

`COc1cc(Cl)ccc1C`: the T/C is 111 % of control under setting [5]; 107 % of control under setting [6]; 97 % of control under setting [7]; 108 % of control under setting [8]; 102 % of control under setting [9]; 98 % of control under setting [12].

As for `[O-][n+]1c(CN2CCCCC2)nc2cccc3c2c1-c1ccccc1-3`, the T/C was 98 % of control and 100 % of control under setting [5]; 98 % of control and 123 % of control under setting [6]; 105 % of control and 106 % of control under setting [7]; 111 % of control and 116 % of control under setting [8]; 102 % of control and 118 % of control under setting [9]; 111 % of control under setting [12].

In the case of `COc1ccc2nc3cc(Cl)ccc3c(NCCNCCNCCNc3c4ccc(Cl)cc4nc4ccc(OC)cc34)c2c1`, the T/C is 99 % of control (dose: 3.12 mg/kg/injection, schedule: Q01DX009 (ip), vehicle: Klucel (hydroxypropylcellulose) (HPC)); 103 % of control (dose: 6.25 mg/kg/injection, schedule: Q01DX009 (ip), vehicle: Klucel (hydroxypropylcellulose) (HPC)); 89 % of control under setting [13]; 97 % of control under setting [10].

In the case of `CSCCC(N)C(=O)O` (stereo unspecified), the T/C reads like this: (dose: 18.75 mg/kg/injection, schedule: Q01DX009 (ip), vehicle: saline with Tween-80) 101 % of control; (dose: 37.5 mg/kg/injection, schedule: Q01DX009 (ip), vehicle: saline with Tween-80) 93 % of control; (dose: 40.0 mg/kg/injection, schedule: Q01DX009 (ip), vehicle: saline with Tween-80) 100 % of control; (dose: 75.0 mg/kg/injection, schedule: Q01DX009 (ip), vehicle: saline with Tween-80) 101 % of control; (dose: 80.0 mg/kg/injection, schedule: Q01DX009 (ip), vehicle: saline with Tween-80) 97 % of control; (dose: 150.0 mg/kg/injection, schedule: Q01DX009 (ip), vehicle: saline with Tween-80) 91 % of control. Further, the T/C reads like this: (dose: 160.0 mg/kg/injection, schedule: Q01DX009 (ip), vehicle: saline with Tween-80) 95 % of control; (dose: 320.0 mg/kg/injection, schedule: Q01DX009 (ip), vehicle: saline with Tween-80) 100 % of control.

Turning to `Cc1ccccc1N(CC1CO1)CC1CO1` (stereo unspecified), the T/C (dose: 12.5 mg/kg/injection, schedule: Q01DX009 (ip), vehicle: saline) is 106 % of control; the T/C (dose: 25.0 mg/kg/injection, schedule: Q01DX009 (ip), vehicle: saline) was 103 % of control; the T/C (dose: 50.0 mg/kg/injection, schedule: Q01DX009 (ip), vehicle: saline) is 109 % of control; the T/C (dose: 100.0 mg/kg/injection, schedule: Q01DX009 (ip), vehicle: saline) was 100 % of control; the T/C (dose: 200.0 mg/kg/injection, schedule: Q01DX009 (ip), vehicle: saline) is 110 % of control.

In the case of `CC(C)(C)C1CCCCC1`, the T/C was 94 % of control under setting [13]; 98 % of control under setting [10]; 95 % of control under setting [11]; 102 % of control (dose: 100.0 mg/kg/injection, schedule: Q01DX009 (ip), vehicle: Klucel (hydroxypropylcellulose) (HPC)); 95 % of control (dose: 200.0 mg/kg/injection, schedule: Q01DX009 (ip), vehicle: Klucel (hydroxypropylcellulose) (HPC)).

These data come from PubChem BioAssay AID274 (DTP/NCI, 2004).
